Source: patent publication US12624004B2 (Fudan University, priority 2019, dated 2026)

How the values were obtained:
Female mice = test: In vivo hot plate method analgesia test; conditions: intraperitoneal; for Maximum percentage effective analgesic (% MPE): Table 1-2, hot plate 55° C.; for Maximum percentage effective analgesic (% MPE) / % MPE (5 mg/kg): 5 mg/kg dose; for % MPE (5 mg/kg): Table 2-2, hot plate 55° C.; for % MPE: Table 4-2, hot plate 55° C.; for % MPE / Maximum percentage effective analgesia (% MPE): 10 mg/kg dose; for Maximum percentage effective analgesia (% MPE): Table 5-2, hot plate 55° C.; for ED50: Mus musculus, ip, Table 4-2, hot plate
Method: Female mice weighing about 20 g were placed on a hot plate apparatus preheated to 55° C., and the latency of the hindfoot response of the mice was used as the pain threshold indicator. Animals were screened before the experiment, and those with response latency less than 5 s or more than 30 s were excluded. To prevent foot scalding, the maximum observation time was set at 60 s. The basal pain threshold was the average of two measurements, with a 5-min interval between measurements. pain thresholds were measured at 15 m, 30 m, 60 m and 120 m after intraperitoneal injection in each group of mice. The percentage effective analgesia (% MPE) was calculated according to the following formula: percentage effective analgesia (% MPE) (post-dose latency−pre-dose latency)/(60−pre-dose latency)×100%. ED50 values were calculated based on the effective percentage of analgesia using the software Graphpad prism 5.0 software.
(§1) Female mice weighing about 20 g were placed on a hot plate apparatus preheated to 55° C., and the latency of the hindfoot response of the mice was used as the pain threshold indicator. Animals were selected before the experiment, and those with response latency less than 5 s or greater than 30 s were excluded. To prevent foot scalding, the maximum observation time was set at 60 s. The basal pain threshold was the average of two measurements, with a 5-min interval between measurements. pain thresholds were measured at 15 min, 30 min, 60 min and 120 min after intraperitoneal administration in each group of mice. The percentage of analgesic effectiveness (% MPE) was calculated according to the following equation. Percentage of effective analgesia (% MPE)_(Pre-dose incubation period−Incubation period after drug administration)/(60-Pre-dose incubation period)×100%. ED50 values were calculated based on the effective percentage of analgesia using GraphPad prism 5.0 software.
as §1, with “were screened” for “were selected”, “measurements. Pain” for “measurements. pain”, “following formula.” for “following equation. Percentage of effective analgesia (% MPE)_(Pre-dose incubation period−Incubation period after drug administration)/(60-Pre-dose incubation period)×100%. ED50 values were calculated based on the effective percentage of analgesia using GraphPad prism 5.0 software.”
ED50 values were calculated based on the effective percentage of analgesia using Graphpad Prism 5.0.
Female mice weighing about 20 g were placed on a hot plate apparatus preheated to 55° C., and the latency of the hindfoot response of the mice was used as the pain threshold indicator. Animals were screened before the experiment, and those with response latency less than 5 s or more than 30 s were excluded. To prevent foot scalding, the maximum observation time was set at 60 s. The basal pain threshold was the average of two measurements, with a 5-min interval between measurements. pain thresholds were measured at 15 min, 30 min, 60 min and 120 min after intraperitoneal administration in each group of mice. The analgesic effective percentage (% MPE) was calculated according to the following formula: analgesic effective percentage (% MPE)=(latency after drug administration−latency before drug administration)/(60−latency before drug administration)×100%. ED50 values were calculated based on the effective percentage of analgesia using the software Graphpad prism 5.0.
Female mice weighing about 20 g were placed on a hot plate apparatus preheated to 55° C. and the latency of the hindfoot response was used as an indicator of pain threshold. […]

μ opioid receptor = molecular target: T1, μ opioid receptor (Homo sapiens, UniProt P35372); test: Competition binding assay on membranes of CHO cells expressing μ opioid receptor, [3H]-labeled ligand; conditions: Table 5-1; read-out: μOR Ki
T1 construct: expressed in transfected cells; host or cells: CHO cells (membranes)
Method: (§2) CHO cells expressing p opioid receptor, δ opioid receptor and κ opioid receptor were cultured in 10 cm^2 culture dishes (F-12 medium+10% neonatal bovine serum) for several days, and the culture fluid was aspirated after the cells had grown to the bottom of the dishes; 3 ml of PBS/EDTA solution (0.1M NaCl, 0.01M NaH2PO4, 0.04% EDTA) was added to digest the cells for 3-5 min. Add ice-cold homogenate (50 mM HEPES PH 7.4, 3 mM MgCl, 1 mM EGTA) to the centrifuge tube, transfer the solution and sediment to a homogenizer and homogenize; then transfer the homogenate to a centrifuge tube and centrifuge at 18000 rpm. Centrifuge for 15 min, two times; the obtained precipitate was homogenized with appropriate amount of 50 mM Tris-HCl, pH 7.4 buffer and divided into centrifuge tubes and stored at −70° C. in the refrigerator until use.
(§3) The total binding tube was spiked with 20-30 μg of the expressed membrane receptor protein and […] ligand (1-2 nM), the corresponding non-specific binding tube was spiked with 1 μM of the corresponding ligand, and the sample tubes were spiked with various screened opioid ligands in a final volume of […], incubated at 30° C. for 30 min, and the reaction was terminated in ice water. […] The samples were filtered under negative pressure through GF/C (whatman) glass fiber filter paper on a Millipore sample collector. The reaction was rinsed three times with 4 ml of 50 mMV Tris-HCl (pH 7.4), the filter paper was dried and placed in 0.5 ml Eppendorf tubes with 0.5 ml of lipophilic scintillation solution, the radioactivity was measured by PERKIN ELMER PRI-CARB 2910 liquid scintillation counter and the inhibition rate was calculated. Inhibition rate (or binding rate)=(total binding rate dpm−sample tube dpm)/(total binding tube dpm−non-specific binding tube dpm)×100%
(§4) IC50 was calculated using Prism 5.0 software. the Ki value was calculated as follows, Ki=IC50/(1+[IL]/Kd), [lL] is the concentration of the added labeled ligand and Kd is the equilibrium dissociation parameter of the labeled ligand.
(§5) CHO cells expressing p opioid receptor, δ opioid receptor and κ opioid receptor were cultured in a 10 cm^2 culture dish (F-12 medium+10% neonatal bovine serum) for several days, and the culture fluid was aspirated after the cells grew to the bottom of the dish. 3 mL PBS/EDTA solution (0.1 M NaCl, 0.01 M NaH2PO4, 0.04% EDTA) was added to digest the cells for 3˜5 min, blew with a pipette to completely dislodge the cells. The cells were collected in a 40 mL centrifuge tube, centrifuged at 5000 rpm for 5 min. The supernatant was removed and the ice-cold homogenate (50 mM HEPES pH 7.4, 3 mM MgCl2, 1 mM EGTA) was added to the centrifuge tube. The solution and the precipitate were transferred to a homogenizer. Then the homogenate was transferred to a centrifuge tube and centrifuged at 18000 rpm for 15 min. The precipitate was centrifuged twice at 18000 rpm for 15 min. The obtained precipitate was homogenized by adding appropriate amount of 50 mM Tris-HCl, pH 7.4 buffer and divided into centrifuge tubes and stored at −70° C. in the refrigerator until use.
(§6) The total binding tube was added with 20-30 μg of expressed membrane receptor protein and [3H]-labeled ligand (1-2 nM). The corresponding non-specific binding tube was added with 1 μM of the corresponding ligand, and the sample tubes were added with various screened opioid ligands in a final volume of 100 μL. All of them were incubated for 30 min at 30° C., and the reaction was terminated in ice water. The samples were filtered under negative pressure through GF/C (Whatman) glass fiber filter paper on a Millipore sample collector. The reaction was rinsed three times with 4 mL of 50 mM Tris-HCl (pH 7.4), the filter paper was dried and placed in 0.5 mL Eppendorf tubes with 0.5 mL of lipophilic scintillation solution. […]

κ opioid receptor = molecular target: T2, κ opioid receptor (Homo sapiens, UniProt P41145); test: Competition binding assay on membranes of CHO cells expressing κ opioid receptor, [3H]-labeled ligand; conditions: Table 5-1; read-out: κOR Ki
T2 construct: expressed in transfected cells; host or cells: CHO cells (membranes)
Method: as §2, §3, §4, §5, §6

δ opioid receptor = molecular target: T3, δ opioid receptor (Homo sapiens, UniProt P41143); test: Competition binding assay on membranes of CHO cells expressing δ opioid receptor, [3H]-labeled ligand; conditions: Table 5-1; read-out: δOR Ki
T3 construct: expressed in transfected cells; host or cells: CHO cells (membranes)
Method: as §2, §3, §4, §5, §6

COc1cccc(C2(O)CCC(NS(=O)(=O)c3cccc(Cl)c3)CC2CN(C)C)c1.Cl (stereo not drawn) [3-Chloro-N-(3-((dimethylamino)methyl)-4-hydroxy-4-(3-methoxyphenyl)cyclohexyl)benzenesulfonamide hydrochloride]
Maximum percentage effective analgesic (% MPE) (Female mice): 11.7%

CN(C)CC1CN(S(=O)(=O)Cc2ccccc2)CCC1(O)c1cccc(OC(F)(F)F)c1.Cl (stereo not drawn)
% MPE (5 mg/kg) (Female mice): 20.2%

COc1cccc([C@@]2(O)CCN(C(=O)Cc3cc(F)c(F)cc3F)C[C@@H]2CN(C)C)c1.Cl
% MPE (Female mice): 10.5%

COc1cccc(C2(O)CCC(N(Cc3ccccc3)S(=O)(=O)c3ccccc3)CC2CN(C)C)c1.Cl (stereo not drawn) [N-Benzyl-N-(3-((dimethylamino)methyl)-4-hydroxy-4-(3-methoxyphenyl)cyclohexyl)benzenesulfonamide hydrochloride]
Maximum percentage effective analgesic (% MPE) (Female mice): 0%

COc1cccc(C2(OC(=O)c3ccccc3)CCC(N(C)S(=O)(=O)Cc3cccc(Cl)c3)CC2CN(C)C)c1.Cl (stereo not drawn)
Maximum percentage effective analgesic (% MPE) (Female mice): 0%

COc1cccc(C2(OC(=O)c3ccccc3)CCC(N(C)S(=O)(=O)Cc3ccccc3)CC2CN(C)C)c1.Cl (stereo not drawn)
Maximum percentage effective analgesic (% MPE) (Female mice): 37.2%

COc1cccc(C2(O)CCC(N(Cc3ccccc3)S(=O)(=O)c3cccc(Cl)c3)CC2CN(C)C)c1.Cl (stereo not drawn) [N-Benzyl-3-chloro-N-(3-((dimethylamino)methyl)-4-hydroxy-4-(3-methoxyphenyl)cyclohexyl)benzenesulfonamide hydrochloride]
Maximum percentage effective analgesic (% MPE) (Female mice): 6%

COc1cccc(C2(OC(=O)c3ccccc3)CCC(NS(=O)(=O)c3cccc(Cl)c3)CC2CN(C)C)c1.Cl (stereo not drawn) [4-((3-Chlorophenyl)sulfonylamino)-2-((dimethylamino)methyl)-1-(3-methoxyphenyl)cyclohexyl benzoate hydrochloride]
Maximum percentage effective analgesic (% MPE) (Female mice): 11.6%

CN(C)C[C@@H]1CN(C(=O)Cc2cc(F)c(F)cc2F)CC[C@@]1(O)c1cccc(O)c1.Cl
% MPE (Female mice): 29.7%

COc1cccc(C2(O)CCC(NS(=O)(=O)Cc3cccc(Cl)c3)CC2CN(C)C)c1.Cl (stereo not drawn) [1-(3-Chlorophenyl)-N-(3-((dimethylamino)methyl)-4-hydroxy-4-(3-methoxyphenyl)cyclohexyl)methanesulfonamide hydrochloride]
Maximum percentage effective analgesic (% MPE) (Female mice): 15.2%

COc1cccc(C2(O)CCN(C(=O)Cc3c[nH]c4ccccc34)CC2CN(C)C)c1 (stereo not drawn) [FWBE13, 1-(3-((Dimethylamino)methyl)-4-hydroxy-4-(3-methoxyphenyl)piperidin-1-yl)-2-(1H-indol-3-yl)ethyl-1-one]
Maximum percentage effective analgesia (% MPE) (Female mice): 66.95% | Ki (μ opioid receptor): 115 ± 4.1 nM | Ki (κ opioid receptor): 3100 ± 79.5 nM

COc1cccc([C@]2(O)CCN(S(=O)(=O)Cc3ccccc3)C[C@H]2CN(C)C)c1.Cl [(3R,4S)-1-(Benzylsulfonyl)-3-((dimethylamino)methyl)-4-(3-methoxyphenyl)piperidin-4-ol hydrochloride]
ED50 (Female mice): 0.49 mg/kg

COc1cccc([C@]2(O)CCN(C(=O)Cc3cc(F)c(F)cc3F)CC2CN(C)C)c1.Cl (stereo partly drawn)
ED50 (Female mice): 0.54 mg/kg

COc1cccc(C2(O)CCN(C(=O)Cc3cccc(Br)c3)CC2CN(C)C)c1.Cl (stereo not drawn) [FWBE11, 2-(3-Bromophenyl)-1-(3-((dimethylamino)methyl)-4-hydroxy-4-(3-methoxyphenyl)piperidin-1-yl)ethyl-1-one hydrochloride]
Maximum percentage effective analgesia (% MPE) (Female mice): 98.31% | Ki (μ opioid receptor): 57.6 ± 0.1 nM | Ki (δ opioid receptor): > 10000 nM

COc1cccc(C2(O)CCC(NS(=O)(=O)c3ccccc3)CC2CN(C)C)c1.Cl (stereo not drawn) [N-(3-((Dimethylamino)methyl)-4-hydroxy-4-(3-methoxyphenyl)cyclohexyl)benzenesulfonamide hydrochloride]
Maximum percentage effective analgesic (% MPE) (Female mice): 10.3%

COc1cccc(C2(O)CCN(C(=O)CCc3cccc(C(F)(F)F)c3)CC2CN(C)C)c1.Cl (stereo not drawn) [FWBE10, 1-(3-((Dimethylamino)methyl)-4-hydroxy-4-(3-methoxyphenyl)piperidin-1-yl)-3-(3-(trifluoromethyl)phenyl)propyl-1-one hydrochloride]
Maximum percentage effective analgesia (% MPE) (Female mice): 17.33% | Ki (μ opioid receptor): 219 ± 9.8 nM | Ki (δ opioid receptor): > 10000 nM

COc1cccc(C2(O)CCC(S(=O)(=O)Cc3ccccc3)CC2CN(C)C)c1.Cl (stereo not drawn) [4-(Benzylsulfonyl)-2-((dimethylamino)methyl)-1-(3-methoxyphenyl)cyclohexane-1-ol hydrochloride]
Maximum percentage effective analgesic (% MPE) (Female mice): 21.7%

COc1cccc(C2(OC(F)F)CCN(S(=O)(=O)Cc3ccccc3)CC2CN(C)C)c1.Cl (stereo not drawn)
% MPE (5 mg/kg) (Female mice): 8.38%
